{"source": "paper PMC5626781", "about": "“A Potent Tartrate Resistant Acid Phosphatase Inhibitor to Study the Function of TRAP in Alveolar Macrophages” (Scientific Reports, 2017)", "key": {"[1]": {"system": "RAW264.7 macrophages", "test": "MTT assay", "type": "cell-based, mouse", "method": "The effect of AubipyOMe and NaAuCl4 on RAW264.7 cell growth was assessed with a classical MTT assay. The IC50 values were calculated using nonlinear curve fitting with a variable slope in Graphpad Prism 6 (Graphpad Software) An average IC50 of four independent experiments was calculated.\nAubipyOMe was tested in the range 0-40 μM with MPI cell lysates or pooled lung tissue lysates from COPD patients using a TRAP activity assay. MPI lysates were diluted 1:1 and COPD tissue lysates 1:20 with acetate buffer and incubated with increasing concentrations inhibitor, that were prepared from freshly made stock solutions (10 mM in DMSO) and diluted with acetate buffer. Lysates were incubated at 37° C for 30 min in the presence of PNPP solution (1:1 ratio). 1M NaOH was added to stop the reaction and absorption was measured at 410 nm with 490 nm as a reference value.\n(§1) The inhibitory effects of gold compounds were calculated as the ratio of absorbance between the treated and untreated wells. The IC50 values were calculated using nonlinear curve fitting with a variable slope in Graphpad Prism 6 (Graphpad Software, la Jolla, USA). An average IC50 of three independent experiments was calculated.\nThe effect of AubipyOMe and NaAuCl4 on cell growth was assessed with a classical MTT assay.\nRAW264.7 macrophages were seeded in 96-well plates at a concentration of 10,000 cells/well and grown for 24h in complete medium. Compound dilutions were prepared in complete medium from a freshly prepared stock solution (10 mM in DMSO) and added to the wells (200 μl) to obtain a final concentration (0 to 100 μM). […] The optical density of each well was quantified in quadruplicate at 540 nm, using a multi-well plate reader, and the percentage of surviving cells was calculated from the ratio of absorbance between treated and untreated cells. The IC50 values were calculated using nonlinear curve fitting with a variable slope in Graphpad Prism 6 (Graphpad Software) An average"}, "[2]": {"target": "T1, recombinant human TRAP5a (Homo sapiens, UniProt P13686)", "T1 construct": "made in house", "T1 sequence (P13686 22-325)": "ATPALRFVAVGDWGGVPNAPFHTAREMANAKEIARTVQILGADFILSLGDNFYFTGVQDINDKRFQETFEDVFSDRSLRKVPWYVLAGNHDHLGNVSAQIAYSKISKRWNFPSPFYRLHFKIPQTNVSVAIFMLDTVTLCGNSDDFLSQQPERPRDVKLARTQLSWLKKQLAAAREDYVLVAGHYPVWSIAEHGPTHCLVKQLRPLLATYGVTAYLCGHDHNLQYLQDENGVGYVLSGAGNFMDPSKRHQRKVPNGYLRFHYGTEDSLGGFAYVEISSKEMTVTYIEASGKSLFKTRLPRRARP", "test": "TRAP activity assay (PNPP) with recombinant TRAP5a", "type": "biochemical", "conditions": "pH 5, 30 min 37 °C, mean ± standard error, n = 3", "method": "(§2) Recombinant unspecified human TRAP was purchased from R&D (Minneapolis, USA). Recombinant human TRAP5a and 5b were produced and purified according to a protocol based on several sources[70]–[72] using an ÄKTApurifier™ 10 FPLC system (GE Healthcare, Danderyd, Sweden) as previously described.\n(§3) Inhibitor dilutions were prepared in acetate buffer from freshly prepared stock solutions (10 mM in DMSO). Recombinant unspecified TRAP (1.25 ng/ml, pH 4.5), TRAP5a (150 ng/mL, pH 5) or TRAP5b (150 ng/mL, pH 5.8) were incubated at 37 °C for 30 minutes with PNPP solution [10 mM PNPP, 200 mM sodium acetaat, 300 mM potassium chloride) at the indicated pH at a 1:1 ratio and increasing concentrations of NaAuCl4 (range 0–40 μM) or Au compounds (range 0–5.1 μM). To stop the reaction, 1M NaOH was added and absorption at 410 nm, with 490 nm as a reference value, was measured using a spectrophotometer.\nas §1"}, "[3]": {"system": "other proteins", "parameters": "method as in PMID 20162197, PMID 21370912", "conditions": "compared to TRAP isoforms; cited from earlier work"}, "[4]": {"system": "RAW264.7 macrophages", "test": "Transwell migration, osteopontin-coated membrane", "type": "cell-based, mouse", "conditions": "AubipyOMe 80 nM, 5-PNA 100 μM", "method": "Migration of RAW264.7 macrophages was assessed using a transwell-culturing system with inserts (Sigma-Aldrich) coated with osteopontin (10 μg/ml, R&D). Bovine collagen-coated inserts (10 μg/ml, Advanced Biometrix, Carlsbad, USA) were used as matrix control. Cells were incubated with or without RANKL (200 ng/ml) for 72 hours to induce TRAP activity or not[75], in the presence or absence of AubipyOMe (80 nM) in quadruplicate. The previously described TRAP inhibitor 5-PNA (100 μM) was used as selective positive control for TRAP inhibition[15],[23]. The number of cells migrated to the lower well, including dead cells, was calculated relative to control cells and individual experiments were done at least six times. […]\nTranswell experiment to assess macrophage migration\nMigration of RAW264.7 macrophages was assessed using a transwell-culturing system with inserts (Sigma-Aldrich) coated with osteopontin (10 µg/ml, R&D). Bovine collagen-coated inserts (Advanced Biometrix, Carlsbad, USA) were used as a matrix control. RAW264.7 macrophages, pre-stimulated with 200 ng/ml RANKL for 72h to induce TRAP activity16, were seeded on 8 µm pore inserts coated with osteopontin (10 µg/ml, 250,000 cells/well) or collagen (10 μg/ml, 250,000 cells/well). Cells were cultured for 16h in the presence or absence of AubipyOMe (80 nM) in quadruplicate. The previously described TRAP inhibitor 5-PNA (100 µM) was used as selective positive control for TRAP inhibition12,17. The number of cells migrated to the lower well, including dead cells, was calculated relative to control cells and individual experiments were done at least six times. […]"}, "[5]": {"target": "recombinant human TRAP5b (Homo sapiens, UniProt P13686)", "test": "TRAP activity assay (PNPP) with recombinant TRAP5b", "type": "biochemical", "conditions": "pH 5.8, 30 min 37 °C, mean ± standard error, n = 3", "method": "as §2, §3, §1"}}, "data": [{"smiles": "COc1ccnc(-c2cc(OC)ccn2)c1.F[P-](F)(F)(F)(F)F.[Cl][Au+][Cl]", "note": "[AubipyOMe, [Au(4,4′-dimethoxy-2,2′-bipyridine)Cl2][PF6]]", "values": [{"measurement": "IC50", "setting": "[1]; RAW264.7 macrophages, 72 h, n = 4, read-out: IC50 cytotoxicity", "result": "~35000", "unit": "nM"}, {"measurement": "cytotoxic effects on RAW264.7 macrophages", "setting": "[1]; at concentrations around the TRAP IC50 values", "result": "no cytotoxic effects"}, {"measurement": "IC50", "setting": "[2]", "result": "1300 ± 500", "unit": "nM"}, {"measurement": "inhibitory effects on other proteins", "setting": "[3]", "result": "extremely moderate"}, {"measurement": "migration of RANKL-pretreated macrophages through osteopontin-coated membrane", "setting": "[4]; RANKL 200 ng/ml 72 h, versus RANKL alone", "result": "significantly less migration"}, {"measurement": "migration through osteopontin-coated membrane, inhibitor alone", "setting": "[4]; no RANKL", "result": "did not affect migration"}, {"measurement": "IC50", "setting": "[5]", "result": "1800 ± 300", "unit": "nM"}]}]}
